In patent publication US11401278B2, “Macrocyclic indole derivatives” (The Broad Institute, Inc., priority 2017, dated 2022):
Read-outs that look alike come from different tables or passages of the source.

What was measured:
[1] = system: AMO-1; test: Antiproliferation assay (Assay 7), AMO-1; type: cell-based; conditions: CellTiter-Glo, several values per example, read-out: Antiproli AMO-1 [M] IC50
Summary of the method: (§1)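 Proliferation was read by CellTiter-Glo luminescence after 72 hours of compound treatment at 37° C. The read was referenced to a parallel plate measured at time zero.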

[2] = system: SUDHL5; test: Induction of caspase-3/7 activity (Assay 4), SUDHL5; type: cell-based; conditions: caspase-3/7 induction, median
Summary of the method: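 DLBCL cells were exposed to compounds for 3 hours at 37 °C, then caspase-3/7 activation was read with Caspase-Glo 3/7 reagent. After subtracting medium-only background, EC50s were derived with fixed C0=1 and the reference compound's maximal induction as plateau.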

[3] = system: SUDHL5; test: Antiproliferation assay (Assay 7), SUDHL5; type: cell-based; conditions: CellTiter-Glo, median, read-out: Antiproli SUDHL5 [M] (median) IC50
Summary of the method: as §1

[4] = target: BCL-2 (Homo sapiens (Human), UniProt P10415); test: Protein-protein interaction assay BCL-2/Bad BH3 peptide (BCL-2 assay, TR-FRET); type: binding; conditions: His-BCL-2 / Bad BH3 peptide, median
Method: Assay 3 Protein-Protein Interaction Assay: BCL-2/Bad BH3 Peptide (BCL-2 Assay)
The dose-dependent inhibition by the compounds described in this invention of the interaction between BCL-2 and the BH3 domain of Bad (both human) was determined using a steady state binding competition assay with time-resolved fluorescence energy transfer (TR-FRET) readout. For that purpose BCL-2 (amino acids 1-211, C-terminal fused to a hexahistidine (6×His) tag (SEQ ID 5) and a synthetic Bad BH3-derived peptide of sequence Biotin-PEG2-PEG2-NLWAAQRYGRELRR-Nle-SDEFVDSFKK-amide (SEQ ID 4) served as protein receptor and tracer ligand respectively. The recombinant BCL-2 protein (expressed in E. coli) was purchased from BPS Bioscience (San Diego, Calif., USA). The Bad BH3-derived peptide can be obtained from e.g. Biosyntan (Berlin, Germany).
In the assay 11 different concentrations of each compound (0.1 nM, 0.33 nM, 1.1 nM, 3.8 nM, 13 nM, 44 nM, 0.15 μM, 0.51 μM, 1.7 μM, 5.9 μM and 20 μM) were typically measured as duplicates in the same microtiter plate. For that, 100-fold concentrated DMSO solutions were prepared by serial dilutions (1:3.4) of a 2 mM stock solution in a clear, 384-well microtiter plate (Greiner Bio-One, Frickenhausen, Germany). From there, 50 nl were transferred in a dark test plate (Greiner Bio-One, Frickenhausen, Germany). The assay was initiated by addition of 2 μl of a 2.5-fold concentrated His-BCL-2 solution (usually for a 1 nM end concentration in 5 μl reaction volume) in aqueous assay buffer [50 mM Tris/HCl pH 7, 100 mM sodium chloride (NaCl), 50 mM potassium fluoride (KF), 0.005% Tween-20, 2 mM DTT, 0.1% bovine gamma globulin (BGG)] to the compounds in the assay plate. This was followed by a 10-minute incubation step at 22° C. for pre-equilibration of the putative complex between His-BCL-2 and the compounds. After that, 3 μl of a 1.67-fold concentrated solution (in assay buffer) consisting of Bad BH3-derived peptide (1 nM end concentration) and TR-FRET detection reagents [1.67 nM anti-His-Eu cryptate and 1.67 nM streptavidin-XL665 (both from Cisbio Bioassays, Codolet, France)], were added.
The mixture was incubated in the dark for one hour at 22° C. and then overnight at 4° C. The formation of BCL-2/Bad complexes was determined by measuring the resonance energy transfer of the anti-His-Eu-cryptate antibody to the streptavidin-XL665 present in the reaction. For that purpose, the fluorescence emission at 620 nm and 665 nm after excitation at 330-350 nm was measured in a TR-FRET measuring instrument, for instance a Rubystar or a Pherastar (both from BMG Lab Technologies, Offenburg, Germany) or a Viewlux (Perkin-Elmer). The ratio of the emission at 665 nm and at 622 nm was used as indicator of the amount of BCL-2/Bad complexes present.
The resulting data (ratio) were normalized, taking 0% inhibition as the mean value of control measurements (usually 32 data points) where all reagents were included. In this case 50 nl DMSO were used instead of compounds. A 100% inhibition corresponded to the mean value of control measurements (usually 32 data points) where all reagents except BCL-2 were included. IC50 values were determined by regression analysis based on a 4 parameter equation (minimum, maximum, IC50, Hill; Y=Max+(Min−Max)/(1+(X/IC50)^HiII) using the Screener Software (Genedata).

BCL-2, sequence (P10415 other isoform, or with tags, fused parts or gaps): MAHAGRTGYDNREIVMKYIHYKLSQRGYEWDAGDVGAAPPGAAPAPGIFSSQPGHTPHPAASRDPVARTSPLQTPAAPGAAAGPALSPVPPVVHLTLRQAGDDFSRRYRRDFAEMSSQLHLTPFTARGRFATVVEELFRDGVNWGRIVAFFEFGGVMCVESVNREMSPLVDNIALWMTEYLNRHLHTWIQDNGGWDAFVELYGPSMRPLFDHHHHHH

Row | SMILES | IC50 ([1]; 72 hours) | EC50 ([2]; 3 hours) | IC50 ([3]; 72 hours) | IC50 [4] | IC50 ([1]; Homo sapiens, AMO1, 72 h) | EC50 ([2]; Homo sapiens, SU-DHL-5, 3 h) | IC50 ([3]; Homo sapiens, SU-DHL-5, 72 h)
1 | Cc1c2c(nn1C)CNS(=O)(=O)CCCn1c(C(=O)O)c(CCCOc3cccc4cc(F)ccc34)c3ccc(Cl)c-2c31 (single isomer, unassigned; enantiomer 2) [Example 52, 4-chloro-7-{3-[(6-fluoronaphthalen-1-yl)oxy]propyl}-2,3-dimethyl-13,13-dioxo-10,11,12,13,14,15-hexahydro-2H-13lambda^6-pyrazolo[3′,4′:4,5][1,2,8]thiadiazacycloundecino[6,7,8-hi]indole-8-carboxylic acid (Enantiomer 2)] | 1.1e-05 M | 27 µM | 2e-05 M | > 20 µM |  |  | 
2 | CCc1c2c(nn1C)C(CCC1CCOCC1)N(C)S(=O)(=O)CCCn1c(C(=O)O)c(CCCOc3cccc4cc(F)ccc34)c3ccc(Cl)c-2c31 (racemic) [Example 59, (rac)-4-chloro-3-ethyl-7-{3-[(6-fluoro-1-naphthyl)oxy]propyl}-2,14-dimethyl-15-[2-(tetrahydro-2H-pyran-4-yl)ethyl]-11,12,14,15-tetrahydro-2H,10H-pyrazolo[3′,4′:4,5][1,2,8]thiadiazacycloundecino[6,7,8-hi]indole-8-carboxylic acid 13,13-dioxide (Racemate 2)] | 2.1e-07 M | 0.037 µM | 5.6e-08 M | 17 µM |  |  | 
3 | Cc1c2c(nn1C)CN(C)S(=O)(=O)CCCn1c(C(=O)O)c(CCCOc3cccc4c3CCC4)c3ccc(F)c-2c31 (racemic) [Example 27, (rac)-1-(3-((2,3-Dihydro-1H-inden-4-yl)oxy)propyl)-13-fluoro-8,11,12-trimethyl-5,6,9,11-tetrahydro-4H,8H-pyrazolo[3′,4′:4,5][1]thia[2,8]diazacycloundecino[6,7,8-hi]indole-2-carboxylic acid 7,7-dioxide] |  |  |  | > 20 µM | 2.5e-06 M | 0.7 µM | 7.8e-07 M
4 | CCc1c2c(nn1C)CN(C)S(=O)(=O)CCCn1c(C(=O)O)c(CCCOc3ccc(F)c4ccccc34)c3ccc(F)c-2c31 (racemic) [Example 35, (rac)-12-Ethyl-13-fluoro-1-(34(4-fluoronaphthalen-1-yl)oxy)propyl)-8,11-dimethyl-5,6,9,11-tetrahydro-4H,8H-pyrazolo[3′,4′:4,5][1]thia[2,8]diazacycloundecino[6,7,8-hi]indole-2-carboxylic acid 7,7-dioxide] | 6.6e-06 M |  |  | > 20 µM | 5.2e-06 M | 1.2 µM | 7.6e-07 M
5 | Cc1c2c(nn1C)CN(C)S(=O)(=O)CCCn1c(C(=O)O)c(CCCOc3cccc4ccccc34)c3ccc(F)c-2c31 (racemic) [Example 26, (rac)-13-Fluoro-8,11,12-trimethyl-1-(3-(naphthalen-1-yloxy)propyl)-5,6,9,11-tetrahydro-4H,8H-pyrazolo[3′,4′:4,5][1]thia[2,8]diazacycloundecino[6,7,8-hi]indole-2-carboxylic acid 7,7-dioxide] |  |  |  | > 20 µM | 7.1e-06 M | 1.3 µM | 1.4e-06 M
6 | CCc1c2c(nn1C)CN(CCCN1CCCC1)S(=O)(=O)CCCn1c(C(=O)O)c(CCCOc3cccc4ccccc34)c3cccc-2c31 (racemic) [Example 16, (rac)-12-Ethyl-11-methyl-1-(3-(naphthalen-1-yloxy)propyl)-8-(3-(pyrrolidin-1-yl)propyl)-5,6,9,11-tetrahydro-4H,8H-pyrazolo[3′,4′:4,5][1]thia[2,8]diazacycloundecino[6,7,8-hi]indole-2-carboxylic acid 7,7-dioxide] |  |  |  | > 20 µM | > 3.3e-05 M | 32 µM | 2.2e-05 M
7 | Cc1c2c(nn1C)CN(C1CC1)S(=O)(=O)CCCn1c(C(=O)O)c(CCCOc3cccc4ccccc34)c3ccc(Cl)c-2c31 [Example 40, (rac)-4-chloro-14-cyclopropyl-2,3-dimethyl-7-[3-(1-naphthyloxy)propyl]-11,12,14,15-tetrahydro-2H,10H-pyrazolo[3′,4′:4,5][1,2,8]thiadiazacycloundecino[6,7,8-hi]indole-8-carboxylic acid 13,13-dioxide] | 4.9e-06 M | 1.9 µM | 2.6e-06 M | > 20 µM |  |  | 
8 | Cc1c2c(nn1C)CN(C1CC1)S(=O)(=O)CCCn1c(C(=O)O)c(CCCOc3cccc4cc(F)ccc34)c3ccc(Cl)c-2c31 (racemic) [Example 41, (rac)-4-chloro-14-cyclopropyl-7-{3-[(6-fluoro-1-naphthyl)oxy]propyl}-2,3-dimethyl-11,12,14,15-tetrahydro-2H,10H-pyrazolo[3′,4′:4,5][1,2,8]thiadiazacycloundecino[6,7,8-hi]indole-8-carboxylic acid 13,13-dioxide] | 8e-07 M | 0.82 µM | 1.2e-06 M | 19 µM |  |  | 
9 | CCc1c2c(nn1C)C(C)N(C)S(=O)(=O)CCCn1c(C(=O)O)c(CCCOc3cccc4ccccc34)c3cccc-2c31 (racemic) [Example 18, 12-Ethyl-8,9,11-trimethyl-1-(3-(naphthalen-1-yloxy)propyl)-5,6,9,11-tetrahydro-4H,8H-pyrazolo[3′,4′:4,5][1]thia[2,8]diazacycloundecino[6,7,8-hi]indole-2-carboxylic acid 7,7-dioxide (Mixture of Stereoisomers)] |  |  |  | > 20 µM | 9.6e-06 M | 3.8 µM | 3.7e-06 M
10 | CCc1c2c(nn1C)CN(C)S(=O)(=O)CCCn1c(C(=O)O)c(CCCOc3cc(C)c(Cl)c(C)c3)c3ccc(F)c-2c31 (racemic) [Example 33, (rac)-1-(3-(4-Chloro-3,5-dimethylphenoxy)propyl)-12-ethyl-13-fluoro-8,11-dimethyl-5,6,9,11-tetrahydro-4H,8H-pyrazolo[3′,4′:4,5][1]thia[2,8]diazacycloundecino[6,7,8-hi]indole-2-carboxylic acid 7,7-dioxide] |  |  |  | > 20 µM | 4.8e-06 M | 1.6 µM | 
11 | Cc1c2c(nn1C)CNS(=O)(=O)CCCn1c(C(=O)O)c(CCCOc3cccc4cc(F)ccc34)c3ccc(Cl)c-2c31 (racemic) [Example 50, (rac)-4-chloro-7-{3-[(6-fluoro-1-naphthyl)oxy]propyl}-2,3-dimethyl-11,12,14,15-tetrahydro-2H,10H-pyrazolo[3′,4′:4,5][1,2,8]thiadiazacycloundecino[6,7,8-hi]indole-8-carboxylic acid 13,13-dioxide] |  |  |  | > 20 µM |  | 0.65 µM | 2e-06 M
12 | Cc1c2c(nn1C)C(N1CCOCC1)CCN(C)S(=O)(=O)CCCn1c(C(=O)O)c(CCCOc3cccc4cc(F)ccc34)c3ccc(Cl)c-2c31 (racemic) [Example 47, (rac)-15-chloro-1-(3-((6-fluoronaphthalen-1-yl)oxy)propyl)-8,13,14-trimethyl-11-(rac)-morpholino-5,6,9,10,11,13-hexahydro-4H,8H-pyrazolo[3′,4′:6,7][1]thia[2,10]diazacyclotridecino[8,9,10-hi]indole-2-carboxylic acid 7,7-dioxide (Mixture of Stereoisomers)] |  |  |  | > 20 µM |  | 0.22 µM | 6.3e-07 M
